Measurements as given in patent US20110217727A1, “METHOD FOR PATTERNING MAGNETIC MATERIALS IN LIVE CELL, METHOD FOR IMAGING PATTERN OF MAGNETIC MATERIALS, AND APPARATUS USED FOR SAME” (MEDISCOV INC., priority 2008, published 2011).

Key:
CSK-EGFP = CSK-EGFP (Homo sapiens, UniProt P41240); assay: Fluorescent pattern of CSK-EGFP co-localized with magnetic materials in live HeLa cells under a magnetic field; type: cell-based; conditions: HeLa cells transfected with CMV-CSK-EGFP; ligand presented on magnetic particles (MNP); NDGA 25~50 μM; magnetic field applied; FIG. 10(A)
Sequence of CSK-EGFP (P41240 whole entry): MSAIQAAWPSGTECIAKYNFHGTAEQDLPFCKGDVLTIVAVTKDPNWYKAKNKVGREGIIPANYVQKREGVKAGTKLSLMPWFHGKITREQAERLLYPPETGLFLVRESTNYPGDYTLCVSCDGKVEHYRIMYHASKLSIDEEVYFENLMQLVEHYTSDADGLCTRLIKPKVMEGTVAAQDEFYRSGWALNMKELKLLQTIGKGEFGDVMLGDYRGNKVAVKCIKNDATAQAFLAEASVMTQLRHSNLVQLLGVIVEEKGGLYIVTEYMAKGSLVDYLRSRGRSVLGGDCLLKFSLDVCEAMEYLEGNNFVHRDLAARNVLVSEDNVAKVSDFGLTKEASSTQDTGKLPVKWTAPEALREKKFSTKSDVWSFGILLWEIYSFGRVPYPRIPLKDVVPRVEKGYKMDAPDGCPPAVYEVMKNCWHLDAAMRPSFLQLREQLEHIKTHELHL
From the text: (§1) In this embodiment, it was observed whether a magnetized pattern of a plurality of magnetic materials formed by applying a magnetic field could be imaged by fluorescent labels when a surface-modified magnetic material was labeled with a fluorescent label through a mediator indirectly as well as directly. In addition, it was identified whether a fluorescent pattern was formed and overlapped (co-localized) with a pattern formed by magnetic materials in a direction of a line of magnetic force or not.
(§2) In addition, CSK (GenBank Acc. No. NM—004383.1) or SNF1LK (GenBank Acc. No. BCO38504) which binds to dasatinib was used for another linker constituting a mediator.
After HeLa cells were subcultured to 5,000˜10,000 cells/well on a 96-well plate, the HeLa cells were transfected by the expression vector DNA prepared as above. […] Magnetic materials coated with dasatinib-biotin were into the cells transfected with DNA by the method mentioned in Example 2, and then NDGA (Nordihydroguaiaretic acid, Sigma) was treated to the final concentration of 25˜50 μM.
In this embodiment, Olympus fluorescence microscope, FV1000, equipped with the object lens of Uplan Apo 40×/0.85 was used to obtain transmitted images in the cells.

SNF1LK-EGFP = molecular target: T1, SNF1LK-EGFP (Homo sapiens, UniProt P57059); assay: Fluorescent pattern of SNF1LK-EGFP co-localized with magnetic materials in live HeLa cells under a magnetic field; type: cell-based; conditions: HeLa cells transfected with CMV-SNF1LK-EGFP; ligand presented on magnetic particles (MNP); NDGA 25~50 μM; magnetic field applied; FIG. 10(B)
T1 construct: ORF(open reading frame) clone without a stop codon was purchased from Open Biosystems; expressed in transfected cells; host or cells: HeLa
T1 sequence (P57059 whole entry): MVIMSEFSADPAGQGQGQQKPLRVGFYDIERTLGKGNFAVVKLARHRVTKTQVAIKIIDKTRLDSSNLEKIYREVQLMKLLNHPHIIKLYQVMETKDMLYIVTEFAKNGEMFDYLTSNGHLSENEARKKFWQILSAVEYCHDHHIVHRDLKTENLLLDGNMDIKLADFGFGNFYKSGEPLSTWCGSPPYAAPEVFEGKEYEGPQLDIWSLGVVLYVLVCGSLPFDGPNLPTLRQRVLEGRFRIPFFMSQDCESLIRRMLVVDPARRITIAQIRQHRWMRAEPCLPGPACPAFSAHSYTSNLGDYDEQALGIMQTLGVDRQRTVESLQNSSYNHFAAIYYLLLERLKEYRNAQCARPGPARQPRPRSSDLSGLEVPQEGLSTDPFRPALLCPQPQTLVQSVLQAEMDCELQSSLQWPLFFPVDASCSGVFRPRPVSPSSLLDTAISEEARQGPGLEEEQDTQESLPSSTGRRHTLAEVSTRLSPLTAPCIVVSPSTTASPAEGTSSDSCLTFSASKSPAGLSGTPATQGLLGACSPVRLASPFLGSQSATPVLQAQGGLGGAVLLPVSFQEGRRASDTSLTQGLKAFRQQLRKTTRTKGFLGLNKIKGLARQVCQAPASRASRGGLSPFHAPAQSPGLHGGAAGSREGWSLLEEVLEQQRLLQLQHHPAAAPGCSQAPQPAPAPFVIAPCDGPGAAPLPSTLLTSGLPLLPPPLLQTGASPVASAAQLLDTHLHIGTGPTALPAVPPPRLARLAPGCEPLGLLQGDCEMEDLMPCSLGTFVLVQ
From the text: as §1, §2
A clone of SNF1LK (GenBank Acc. No. BCO38504) ORF(open reading frame) clone without a stop codon was purchased from Open Biosystems. SNF1LK ORF clone and CSK ORF clone were cloned into pCMV-DEST-EGFP by a known cloning method to produce CMV-SNF1LK-EGFP and CMV-CSK-EGFP expression vectors (Hartley, et al. (2000) DNA cloning using in vitro site-specific recombination. Genome Res. 10, 1788-1795).
After HeLa cells were subcultured to 5,000˜10,000 cells/well on a 96-well plate, the HeLa cells were transfected by the expression vector DNA prepared as above. […]

With `Cc1nc(Nc2ncc(C(=O)Nc3c(C)cccc3Cl)s2)cc(N2CCN(CCO)CC2)n1` [dasatinib, N-(2-chloro-6-methyl-phenyl)-2-(6-(4-(2-hydroxyethyl)-piperazin-1-yl)-2-methylpyrimidin-4-ylamino)thiazole-5-carboxamide] as the compound, how does the “fluorescent pattern of EGFP in a magnetized direction (direction of a line of magnetic force)” value (CSK-EGFP) read?
The value was “identified”.

And the “fluorescent pattern of EGFP in a magnetized direction (direction of a line of magnetic force)” value (SNF1LK-EGFP)?
The value was “identified”.
